Source: patent publication US6365746B1, “Stable and water soluble bis Au(I) complexes and their synthesis” (Eastman Kodak Company, priority 1997, dated 2002)

Key:
Type in all cases: physicochemical
[1] = Stability study of aqueous solution monitored by UV-visible spectroscopy
Protocol: Stability Study of Compound S. To a 1000 mL borosilicate volumetric flask was added 14.7 g of Compound S and water. An aliquot of the gold solution was placed into a quartz cuvette and the keeping characteristics of the solution were monitored using UV-visible spectroscopy over the course of 25 days. A compound, TTT, a known sensitizer having a mesoionic heterocycle was similarly monitored.

[2] = Solubility study in water (gravimetric, filtrate residue); conditions: stirred in the dark 1 hr, filtered, duplicate
Protocol: Solubility Study of compound S.5 H2O. To a 10 mL borosilicate volumetric flask was added 0.25 g of Compound S and a stir bar. Water was added to the 10 mL mark and the suspension was stirred in the dark for 1 hr. The suspension was filtered through a 0.25 μm syringe filter and 3.00 mL of the filtrate was placed into a tared porcelain dish (dried by heating at 125° C. for 12 hours followed by cooling to ambient temperature in a CaCl2 desiccator). The sample was placed into a vacuum desiccator and subjected to vacuum for ca. 60 hours. Finally, the dish and residue were weighed and the mass of the residue was determined by difference.

[3] = Stability in 0.025 N H2SO4 at room temperature (gold precipitation); conditions: 200 mg in 600 mL 0.025 N H2SO4, room temperature, after two weeks (duration of the study)
Protocol: Stability of Compound S versus Compound TTT. Two different batches of Compound TTT and Compound S, each weighing 200 mg, were dissolved in 600 mL of a 0.025 N H2SO4. The solutions were allowed to stand at room temperature. One of the solutions containing Compound TTT had brownish colloidal gold precipitated within 5 days and the other batch had purplish gold specks after 7 days.

Substance	Change in Absorbance @ 235 nm ([1]; day 1)	Change in Absorbance @ 235 nm ([1]; day 4)	Change in Absorbance @ 235 nm ([1]; day 8)	Change in Absorbance @ 235 nm ([1]; day 13)	Change in Absorbance @ 235 nm ([1]; day 20)	Change in Absorbance @ 235 nm ([1]; day 25)	average solubility [2] [mg/mL]	gold precipitate from the solution [3]
potassium bis(1-[3-(2-sulfonatobenzamido)phenyl]-5-mercaptotetrazole potassium salt) aurate(I) pentahydrate [Compound S]	0	0.0013	0.0015	0.0058	0.0070	0.0064	33.6	no gold precipitate
bis(1,4,5-trimethyl-1,2,4-triazolium-3-thiolate) gold (I) tetrafluoroborate [TTT, reference compound]	0	0.0222	0.0653	0.0868	0.1108	0.1340	–	–
